{
  "source": "patent US9084790B2",
  "about": "“Compositions and methods for treating skin cancer associated diseases” (The Trustees of the Unversity of Pennsylvania, priority 2011, dated 2015)",
  "key": {"[1]": {"test_system": "cSCCs in K14-Fyn Y528F mice", "conditions": "for outcome of treated cSCC in one mouse receiving both compounds: PP2 to a large facial cSCC, PP3 to a back cSCC of the same mouse, end of the 6 weeks (FIG. 7); for treated tumors demonstrating significant tumor regression as defined by a 75% or greater decrease in tumor area: approximately 25 μL of 1 mM topically, daily Monday thru Friday for 30 days, evaluated for 6 weeks, PP2 N=11 tumors, PP3 N=9 tumors, p<0.01; for regression of cSCCs: daily Monday-Friday for three weeks, final measurement one week after end of treatment"}, "[2]": {"test_system": "precancerous lesion in K14-Fyn Y528F mice", "experiment": "Topical treatment of precancerous lesion in K14-Fyn Y528F mice", "assay_type": "in vivo", "conditions": "1 mM in DMSO topically once a day Monday-Friday for 20 times (FIG. 10)", "excerpt": "FIG. 10. Clearance of precancerous lesion and a cSCC by PP2 in three weeks. One millimolar PP2 in DMSO was topically applied once a day Monday-Friday for 20 times to a small precancerous lesion on the ear and to a cSCC on the neck. […] Small black rectangle=2 mm\nOne millimolar PP2 in DMSO was topically applied once a day Monday-Friday for 20 times to a small precancerous lesion on the ear and to a cSCC on the neck."}, "[3]": {"test_system": "UV-induced tumor formation in transgenic models overexpressing v-Ras^Ha", "conditions": "cited from earlier work"}, "EGFR": {"target": "EGFR (Homo sapiens, UniProt P00533)", "sequence (P00533 25-1210, species assumed)": "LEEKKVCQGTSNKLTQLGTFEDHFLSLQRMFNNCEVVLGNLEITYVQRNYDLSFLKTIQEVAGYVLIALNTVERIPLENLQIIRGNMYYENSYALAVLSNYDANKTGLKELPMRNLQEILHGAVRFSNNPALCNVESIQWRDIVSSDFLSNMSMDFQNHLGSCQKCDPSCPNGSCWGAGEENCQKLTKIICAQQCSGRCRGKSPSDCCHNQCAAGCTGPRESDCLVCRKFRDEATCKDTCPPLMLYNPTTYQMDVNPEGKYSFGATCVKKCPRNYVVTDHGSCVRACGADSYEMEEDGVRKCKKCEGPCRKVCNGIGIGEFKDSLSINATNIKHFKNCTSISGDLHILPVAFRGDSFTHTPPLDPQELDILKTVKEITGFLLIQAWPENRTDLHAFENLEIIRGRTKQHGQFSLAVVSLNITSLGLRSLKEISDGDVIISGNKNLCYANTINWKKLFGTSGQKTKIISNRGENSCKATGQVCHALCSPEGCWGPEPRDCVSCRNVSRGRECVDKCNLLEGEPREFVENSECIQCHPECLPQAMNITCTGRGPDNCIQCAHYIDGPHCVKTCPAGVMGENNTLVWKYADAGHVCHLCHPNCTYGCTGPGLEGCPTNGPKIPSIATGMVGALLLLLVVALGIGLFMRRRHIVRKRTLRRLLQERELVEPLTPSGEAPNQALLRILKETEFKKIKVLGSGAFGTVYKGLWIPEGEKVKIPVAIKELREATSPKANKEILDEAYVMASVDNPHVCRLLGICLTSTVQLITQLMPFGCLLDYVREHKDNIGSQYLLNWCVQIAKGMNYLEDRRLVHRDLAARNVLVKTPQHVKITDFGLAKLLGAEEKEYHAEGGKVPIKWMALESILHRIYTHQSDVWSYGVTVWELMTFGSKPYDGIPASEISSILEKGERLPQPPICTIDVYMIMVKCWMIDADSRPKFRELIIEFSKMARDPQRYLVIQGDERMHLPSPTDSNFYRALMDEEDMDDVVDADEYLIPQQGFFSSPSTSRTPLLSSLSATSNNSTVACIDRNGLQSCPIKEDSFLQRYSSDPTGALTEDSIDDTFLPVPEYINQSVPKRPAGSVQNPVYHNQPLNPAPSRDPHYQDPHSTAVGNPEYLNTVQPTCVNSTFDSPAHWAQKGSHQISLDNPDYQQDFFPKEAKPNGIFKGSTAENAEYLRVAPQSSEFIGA", "conditions": "cited from earlier work"}, "[4]": {"conditions": "radio-labeled, applied in a white petrolatum ointment to rat skin; cited from earlier work"}, "[5]": {"conditions": "1% topical ethanol or DMSO gel or ointment daily Monday-Friday, 15 mice with solitary cSCCs, example written in present tense"}},
  "note": "Like-named read-outs stand apart in the source and are kept apart here.",
  "data": [
    {"molecule": "4-amino-5-(4-chlorophenyl)-7-(t-butyl)pyrazolo[3,4-d]-pyrimidine [PP2]", "values": [
      {"measurement": "clearance of cSCC on the neck", "setting": "[1]; 1 mM in DMSO topically once a day Monday-Friday for 20 times (FIG. 10)", "result": "Clearance of both lesions was noted by three weeks"},
      {"measurement": "clearance of cSCC covering the dorsum of the ear", "setting": "[1]; 1 mM in DMSO topically once a day Monday-Friday for 30 times, six weeks after beginning treatment (FIG. 9)", "result": "Prominent clearance of the cSCC"},
      {"measurement": "time by which clearance of a large facial cSCC was noted", "setting": "[1]; 1 mM in DMSO topically once a day Monday-Saturday for 20 times (FIG. 8)", "result": "≤ 21", "unit": "days"},
      {"measurement": "outcome of treated cSCC in one mouse receiving both compounds", "setting": "[1]", "result": "regressed"},
      {"measurement": "treated tumors demonstrating significant tumor regression as defined by a 75% or greater decrease in tumor area", "setting": "[1]", "result": "All"},
      {"measurement": "histology of treated area: local skin reactions", "setting": "[1]; ear cSCC treated 30 times with 1 mM in DMSO, compared with what might be seen with 5-FU", "result": "Notably absent are prominent inflammation, ulceration, or skin peeling"},
      {"measurement": "tumor regression (FIG. 11)", "setting": "[1]; topical, five weeks", "result": "induces tumor regression in five weeks"},
      {"measurement": "clearance of small precancerous lesion on the ear", "setting": "[2]", "result": "Clearance of both lesions was noted by three weeks"}
    ]},
    {"molecule": "COc1cc2ncnc(Nc3cccc(Cl)c3)c2cc1OC", "note": "[AG1478]", "values": [
      {"measurement": "UV-induced tumor formation after topical application", "setting": "[3]", "result": "inhibit UV-induced tumor formation"}
    ]},
    {"molecule": "Cn1c(=O)n(-c2ccc(C(C)(C)C#N)cc2)c2c3cc(-c4cnc5ccccc5c4)ccc3ncc21", "note": "[BEZ235]", "values": [
      {"measurement": "tumors completely regressed", "setting": "[1]; 20 mM topical ointment daily Monday-Friday, 15 mice with solitary cSCCs, by five weeks", "result": 80, "unit": "%"},
      {"measurement": "regression of cSCCs in the treatment group compared to controls", "setting": "[1]; 20 mM topical ointment daily Monday-Friday, control ointment alone (FIG. 14)", "result": "marked regression"}
    ]},
    {"molecule": "CC(C)Cn1c2ccc(Nc3ncccn3)cc2c2c3c(c4c(c21)CCc1nn(C)cc1-4)C(=O)NC3", "note": "[CEP-11981, 13-isobutyl-4-methyl-10-(pyrimidin-2-ylamino)-4,7,8,13-tetrahydro-1H-indazolo[5,4-a]pyrrolo[3,4-c]carbazol-6(2H)-one]", "values": [
      {"measurement": "regression of cSCCs in the treatment group compared to controls", "setting": "[1]; [5]", "result": "marked regression"}
    ]},
    {"molecule": "Nc1ncnc2c1cnn2-c1ccccc1", "note": "[PP3, 4-Amino-7-Phenylpyrazolpyrimidine]", "values": [
      {"measurement": "IC50", "setting": "EGFR", "result": 2700, "unit": "nM"},
      {"measurement": "outcome of treated cSCC in one mouse receiving both compounds", "setting": "[1]", "result": "unchanged"},
      {"measurement": "treated tumors demonstrating significant tumor regression as defined by a 75% or greater decrease in tumor area", "setting": "[1]", "result": "None"}
    ]},
    {"molecule": "N#C/C(=C\\c1cc(Cl)cc(Cl)c1)c1cccnc1", "note": "[RG 14620]", "values": [
      {"measurement": "epidermal penetration", "setting": "[4]", "result": "demonstrated epidermal penetration"}
    ]},
    {"molecule": "CN1CCN(CCOc2cc(OC3CCOCC3)c3c(Nc4c(Cl)ccc5c4OCO5)ncnc3c2)CC1", "note": "[Saracatinib, N-(5-chlorobenzo[d][1,3]dioxol-4-yl)-7-(2-(4-methylpiperazin-1-yl)ethoxy)-5-(tetrahydro-2H-pyran-4-yloxy)quinazolin-4-amine]", "values": [
      {"measurement": "regression of cSCCs in the treatment group compared to controls", "setting": "[1]; [5]", "result": "marked regression"}
    ]},
    {"molecule": "Cn1cnc2c(F)c(Nc3ccc(Br)cc3Cl)c(C(=O)NOCCO)cc21", "note": "[Selumetinib, 6-(4-bromo-2-chlorophenylamino)-7-fluoro-N-(2-hydroxyethoxy)-3-methyl-3H-benzo[d]imidazole-5-carboxamide]", "values": [
      {"measurement": "regression of cSCCs in the treatment group compared to controls", "setting": "[1]; [5]", "result": "marked regression"}
    ]},
    {"molecule": "C[C@@H]1CCN(C(=O)CC#N)C[C@@H]1N(C)c1ncnc2[nH]ccc12", "note": "[Tofacitinib, 3-[(3R,4R)-4-methyl-3-[methyl(7H-pyrrolo[2,3-d]pyrimidin-4-yl)amino]piperidin-1-yl]-3-oxopropanenitrile]", "values": [
      {"measurement": "regression of cSCCs in the treatment group compared to controls", "setting": "[1]; [5]", "result": "marked regression"}
    ]},
    {"molecule": "CS/C(N)=C(C#N)/C(C#N)=C(\\N)SC", "note": "[U0124, 2,3-Bis-[1-amino-1-methylsulfanyl-meth-(Z)-ylidene]-succinonitrile]", "values": [
      {"measurement": "size of treated cSCCs", "setting": "[1]; 2 mice with 2 cSCCs of 1 mm^2, treated analogously to U0126", "result": "stayed the same size"},
      {"measurement": "regression of cSCCs", "setting": "[1]; topical", "result": 0, "unit": "%"}
    ]},
    {"molecule": "N#CC(=C(N)Sc1ccccc1N)C(C#N)=C(N)Sc1ccccc1N", "note": "[U0126, 1,4-diamino-2,3-dicyano-1,4-bis(2-aminophenylthio)butadiene]", "values": [
      {"measurement": "regression of cSCCs", "setting": "[1]; topical", "result": "75+/−37%"}
    ]},
    {"molecule": "Cc1nc(Nc2ncc(C(=O)Nc3c(C)cccc3Cl)s2)cc(N2CCN(CCO)CC2)n1.O", "note": "[dasatinib, N-(2-chloro-6-methylphenyl)-2-[[6-[4-(2-hydroxyethyl)-1-piperazinyl]-2-methyl-4-pyrimidinyl]amino]-5-thiazolecarboxamide, monohydrate]", "values": [
      {"measurement": "time by which clearance of a back cSCC was noted", "setting": "[1]; 1% ointment topically daily Monday-Friday for 25 applications (FIG. 13)", "result": "≤ 5", "unit": "weeks"},
      {"measurement": "original tumor area remaining", "setting": "[1]; topical 1% ointment daily Monday-Friday, 11 mice with solitary cSCCs, after 5 weeks", "result": 4, "unit": "%"}
    ]}
  ]
}
